Laboratory results published in PubChem BioAssay AID2060509 (Molecular Pharmacology Branch, DTP, NCI, 2025).

Test system: 485176-168-R4-J1-PDC spheroids with HUVEC/MSC, viability
Assay: Anticancer human tumor 485176-168-R4-J1-PDC patient-derived pancreatic adenocarcinoma cell line growth inhibition [GQUAD]
Conditions: for IC50: curve of first compound; for viability, T/C: stronger effect = lower value
Summary of the method: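 Viability of tumor cells grown as complex spheroids with endothelial and stromal cells, exposed to drug combinations. Top concentration at or near clinical Cmax (else 10 microM), diluted in half-log increments.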

[1] = second compound 0.0316 µM, first compound 0.0316 µM
[2] = second compound 0.0316 µM, first compound 0.1 µM
[3] = second compound 0.0316 µM, first compound 0.316 µM
[4] = second compound 0.0316 µM, first compound 1 µM
[5] = second compound 0.0316 µM, first compound 3.16 µM
[6] = second compound 0.0316 µM, first compound 10 µM
[7] = second compound 0.1 µM, first compound 0.0316 µM
[8] = second compound 0.1 µM, first compound 0.1 µM
[9] = second compound 0.1 µM, first compound 0.316 µM
[10] = second compound 0.1 µM, first compound 1 µM
[11] = second compound 0.1 µM, first compound 3.16 µM
[12] = second compound 0.1 µM, first compound 10 µM
[13] = second compound 0.316 µM, first compound 0.0316 µM
[14] = second compound 0.316 µM, first compound 0.1 µM
[15] = second compound 0.316 µM, first compound 0.316 µM
[16] = second compound 0.316 µM, first compound 1 µM
[17] = second compound 0.316 µM, first compound 3.16 µM
[18] = second compound 0.316 µM, first compound 10 µM
[19] = second compound 1 µM, first compound 0.0316 µM
[20] = second compound 1 µM, first compound 0.1 µM
[21] = second compound 1 µM, first compound 0.316 µM
[22] = second compound 1 µM, first compound 1 µM
[23] = second compound 1 µM, first compound 3.16 µM
[24] = second compound 1 µM, first compound 10 µM
[25] = second compound 3.16 µM, first compound 0.0316 µM
[26] = second compound 3.16 µM, first compound 0.1 µM
[27] = second compound 3.16 µM, first compound 0.316 µM
[28] = second compound 3.16 µM, first compound 1 µM
[29] = second compound 3.16 µM, first compound 3.16 µM
[30] = second compound 3.16 µM, first compound 10 µM
[31] = second compound 10 µM, first compound 0.0316 µM
[32] = second compound 10 µM, first compound 0.1 µM
[33] = second compound 10 µM, first compound 0.316 µM
[34] = second compound 10 µM, first compound 1 µM
[35] = second compound 10 µM, first compound 3.16 µM
[36] = second compound 10 µM, first compound 10 µM
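Also: spheroids exposed to compounds for seven days before readout.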
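For viability, T/C in this document: percent viability relative to DMSO vehicle control wells as 100%.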

## CC(C)(O)C1CCC(Nc2ccc3ncc(-c4cccc(C(F)(F)F)c4)n3n2)CC1 (stereo unspecified) + Cc1[nH]c2ccc(F)cc2c1-c1nc2c3cccnc3c3ncccc3c2[nH]1
Second compound 0.0316 µM
  IC50: > 10000 nM
Second compound 0.1 µM
  IC50: > 10000 nM
Second compound 0.316 µM
  IC50: 8530 nM
Second compound 1 µM
  IC50: 2590 nM
Second compound 3.16 µM
  IC50: 2760 nM
Second compound 10 µM
  IC50: 2560 nM
[1]
  viability, T/C: 80.2%
[2]
  viability, T/C: 110%
[3]
  viability, T/C: 84.5%
[4]
  viability, T/C: 81.3%
[5]
  viability, T/C: 57.7%
[6]
  viability, T/C: 54.7%
[7]
  viability, T/C: 93.2%
[8]
  viability, T/C: 89.3%
[9]
  viability, T/C: 86.8%
[10]
  viability, T/C: 88.4%
[11]
  viability, T/C: 61%
[12]
  viability, T/C: 59.9%
[13]
  viability, T/C: 93.6%
[14]
  viability, T/C: 100%
[15]
  viability, T/C: 86.8%
[16]
  viability, T/C: 82.3%
[17]
  viability, T/C: 58%
[18]
  viability, T/C: 49.1%
[19]
  viability, T/C: 82.9%
[20]
  viability, T/C: 93.1%
[21]
  viability, T/C: 108%
[22]
  viability, T/C: 77.6%
[23]
  viability, T/C: 47.3%
[24]
  viability, T/C: 40.5%
[25]
  viability, T/C: 76.9%
[26]
  viability, T/C: 83.7%
[27]
  viability, T/C: 88.6%
[28]
  viability, T/C: 78.6%
[29]
  viability, T/C: 46.2%
[30]
  viability, T/C: 33.1%
[31]
  viability, T/C: 92%
[32]
  viability, T/C: 55.6%
[33]
  viability, T/C: 70.3%
[34]
  viability, T/C: 75.3%
[35]
  viability, T/C: 40.3%
[36]
  viability, T/C: 29.5%

## Cc1[nH]c2ccccc2c1CCNCc1ccc(/C=C/C(=O)NO)cc1 + CN(C)c1ccc(Nc2c3ccc(NC(=O)CCN4CCCC4)cc3nc3cc(NC(=O)CCN4CCCC4)ccc23)cc1
Second compound 0.0316 µM
  IC50: 116 nM
Second compound 0.1 µM
  IC50: 132 nM
Second compound 0.316 µM
  IC50: 126 nM
Second compound 1 µM
  IC50: 136 nM
Second compound 3.16 µM
  IC50: 88.3 nM
Second compound 10 µM
  IC50: 120 nM
Second compound 0.0316 µM, first compound 0.000999 µM
  viability, T/C: 102%
Second compound 0.0316 µM, first compound 0.00316 µM
  viability, T/C: 89.9%
Second compound 0.0316 µM, first compound 0.00999 µM
  viability, T/C: 82.7%
[1]
  viability, T/C: 69.4%
Second compound 0.0316 µM, first compound 0.0999 µM
  viability, T/C: 64.6%
[3]
  viability, T/C: 12.9%
Second compound 0.1 µM, first compound 0.000999 µM
  viability, T/C: 103%
Second compound 0.1 µM, first compound 0.00316 µM
  viability, T/C: 87.5%
Second compound 0.1 µM, first compound 0.00999 µM
  viability, T/C: 89.2%
[7]
  viability, T/C: 86.1%
Second compound 0.1 µM, first compound 0.0999 µM
  viability, T/C: 61.9%
[9]
  viability, T/C: 12.1%
Second compound 0.316 µM, first compound 0.000999 µM
  viability, T/C: 80.1%
Second compound 0.316 µM, first compound 0.00316 µM
  viability, T/C: 96.7%
Second compound 0.316 µM, first compound 0.00999 µM
  viability, T/C: 82.9%
[13]
  viability, T/C: 82%
Second compound 0.316 µM, first compound 0.0999 µM
  viability, T/C: 59.4%
[15]
  viability, T/C: 11.8%
Second compound 1 µM, first compound 0.000999 µM
  viability, T/C: 97.3%
Second compound 1 µM, first compound 0.00316 µM
  viability, T/C: 96.7%
Second compound 1 µM, first compound 0.00999 µM
  viability, T/C: 83%
[19]
  viability, T/C: 64.2%
Second compound 1 µM, first compound 0.0999 µM
  viability, T/C: 76.5%
[21]
  viability, T/C: 10%
Second compound 3.16 µM, first compound 0.000999 µM
  viability, T/C: 113%
Second compound 3.16 µM, first compound 0.00316 µM
  viability, T/C: 97.9%
Second compound 3.16 µM, first compound 0.00999 µM
  viability, T/C: 86%
[25]
  viability, T/C: 74.5%
Second compound 3.16 µM, first compound 0.0999 µM
  viability, T/C: 47.9%
[27]
  viability, T/C: 14.5%
Second compound 10 µM, first compound 0.000999 µM
  viability, T/C: 104%
Second compound 10 µM, first compound 0.00316 µM
  viability, T/C: 83.5%
Second compound 10 µM, first compound 0.00999 µM
  viability, T/C: 69.3%
[31]
  viability, T/C: 90.7%
Second compound 10 µM, first compound 0.0999 µM
  viability, T/C: 58.3%
[33]
  viability, T/C: 5.87%

## C=CCn1c(=O)c2cnc(Nc3ccc(N4CCN(C)CC4)cc3)nc2n1-c1cccc(C(C)(C)O)n1 + CN(C)c1ccc(Nc2c3ccc(NC(=O)CCN4CCCC4)cc3nc3cc(NC(=O)CCN4CCCC4)ccc23)cc1
Second compound 0.0316 µM
  IC50: 554 nM
Second compound 0.1 µM
  IC50: 544 nM
Second compound 0.316 µM
  IC50: 344 nM
Second compound 1 µM
  IC50: 450 nM
Second compound 3.16 µM
  IC50: 507 nM
Second compound 10 µM
  IC50: 459 nM
[1]
  viability, T/C: 98.2%
[2]
  viability, T/C: 89.9%
[3]
  viability, T/C: 79.2%
[4]
  viability, T/C: 19.5%
[5]
  viability, T/C: 7.62%
[6]
  viability, T/C: 4.64%
[7]
  viability, T/C: 101%
[8]
  viability, T/C: 88.2%
[9]
  viability, T/C: 76%
[10]
  viability, T/C: 21.3%
[11]
  viability, T/C: 8.2%
[12]
  viability, T/C: 4.88%
[13]
  viability, T/C: 116%
[14]
  viability, T/C: 93.7%
[15]
  viability, T/C: 53.8%
[16]
  viability, T/C: 17.2%
[17]
  viability, T/C: 6.62%
[18]
  viability, T/C: 4.69%
[19]
  viability, T/C: 88.7%
[20]
  viability, T/C: 84.9%
[21]
  viability, T/C: 62.5%
[22]
  viability, T/C: 21.5%
[23]
  viability, T/C: 10.6%
[24]
  viability, T/C: 4.67%
[25]
  viability, T/C: 93.1%
[26]
  viability, T/C: 92.8%
[27]
  viability, T/C: 71.8%
[28]
  viability, T/C: 18.2%
[29]
  viability, T/C: 12.4%
[30]
  viability, T/C: 4.45%
[31]
  viability, T/C: 84.4%
[32]
  viability, T/C: 75.1%
[33]
  viability, T/C: 62.5%
[34]
  viability, T/C: 26.4%
[35]
  viability, T/C: 9.3%
[36]
  viability, T/C: 6.12%
